Key:
[1] = tested on: BRCA1 mRNA expression in MDA-MB-231 cells; assay: qRT-PCR assay: BRCA1 mRNA expression in MDA-MB-231; format: cell-based, human; settings: Homo sapiens, MDA-MB-231, Inhibition of BRCA1 mRNA expression in MDA-MB-231 cells; median; read-out: RTqPCR-MDA-MB-231, IC50, BRCA1 (median)
Method: 3. qRT-PCR Assay: BRCA, ATR, MCL1 in MDA-MB-231, CAL-120
Tissue cultured human MDA-MB-231 human breast cancer cells were plated in 500 microL per well at 200,000 cells/well in a 24 well microtiter plate. After 24 h, the cells were exposed continuously for 24 h to test substances (substances were added with Tecan HP 0300 Dispenser). RNA was prepared using Qiagen RNeasy MiniKit (#74106), RNA was quantified using a NanoDrop Equipment, and 600 nano gamms of RNA was coverted to cDNA using a SuperScript VILO kit (Thermofisher #11755050) followed by qPCR amplification. BRCA1 and ATR gene expression was measured by RT-qPCR and normalised to GAPDH housekeeping gene expression. qPCR primer sets have been purchased from Thermo Fisher Scientific/Applied Biosystems: BRCA1, #Hs 01556193; ATR, #Hs 00992123; GAPDH, #Hs 03929097.

[2] = biological target: T1, CYCLIN K (nuclear staining in CAL-120 cells) (Homo sapiens, UniProt O75909); assay: CYCLIN K nuclear protein level: immunofluorescence high content analysis (CAL-120); format: cell-based; settings: 24 h, 50% reduction of nuclear CCNK staining intensity, median, read-out: CYCLIN K degradation IF, DC50-[mol/l] (median)
T1 construct: endogenous in cells; host or cells: CAL-120 human breast cancer cells (DSMZ ACC 459)
Method: 8. CYCLIN K nuclear protein level: immunofluorescence High Content Analysis
CAL-120 human breast cancer cells (DSMZ ACC 459) are seeded in 1536-well microtiter plates (800 cells per well) containing 50 nanoL of compounds in Dose-Response. Control wells received DMSO or Example 4. Plates are then incubated for 24 h at 37° C. in an humidified incubator and fixed with 4% PFA for 10 min. Then immunofluorescence (IF) against CYCLIN K (ThermoFisher Scientific CONK Antibody #PA5-85020, rabbit, 1:200 dilution) is performed using standard IF protocols. Cells are then stained with Hoechst 33342 (Life Technologies, H-1399, 0.1 microg/ml) and imaged on an automated confocal microscopy system (e.g. Perkin Elmer Opera Phenix). Nuclear and cytoplasmic intensity as well as the nuclear/cytoplasmic intensity ratio is determined by automated image analysis using custom generated scripts (MetaXpress). Data is then transferred to Genedata Screener software, normalized to DMSO and control and DC50 values (degrading concentration to achieve 50% reduction of nuclear CCNK staining intensity relative to controls) are reported.

[3] = biological target: T2, CDK9/CycT1 (Homo sapiens, UniProt P50750); assay: CDK9/CycT1 high ATP kinase assay (TR-FRET, 2 mM ATP); format: biochemical; settings: 2 mM ATP (high ATP); median; read-out: CDK9/CyclinT1, 2 mM ATP (high ATP), IC50 (median)
T2 construct: Recombinant full-length His-tagged human CDK9 and CycT1; purchased Life Technologies PV4131; host or cells: insect cells
Method: CDK9/CycT1-inhibitory activity of compounds of the present invention at a high ATP concentration after preincubation of enzyme and test compounds was quantified employing the CDK9/CycT1 TR-FRET assay as described in the following paragraphs.
Recombinant full-length His-tagged human CDK9 and CycT1, expressed in insect cells and purified by Ni-NTA affinity chromatography, were purchased from Life Technologies (Cat. No PV4131). As substrate for the kinase reaction biotinylated peptide biotin-Ttds-[…] (C-terminus in amide form) was used which can be purchased e.g. form the company JERINI peptide technologies (Berlin, Germany).
For the assay 50 nanoL of a 100 fold concentrated solution of the test compound in DMSO was pipetted into either a black low volume 384 well microtiter plate or a black 1536 well microtiter plate (both Greiner Bio-One, Frickenhausen, Germany), 2 microL of a solution of CDK9/CycT1 in aqueous assay buffer [50 millimol/L Tris/HCl pH 8.0, 10 millimol/L MgCl2, 1.0 millimol/L dithiothreitol, 0.1 millimol/L sodium ortho-vanadate, 0.01% (v/v) Nonidet-P40 (Sigma)] were added and the mixture was incubated for 15 min at 22° C. to allow pre-binding of the test compounds to the enzyme before the start of the kinase reaction. […] The concentration of CDK9/CycT1 was adjusted depending of the activity of the enzyme lot and was chosen appropriate to have the assay in the linear range, typical concentrations were in the range of 0.5 microg/ml.
The resulting mixture was incubated 1 h at 22° C. to allow the formation of complex between the phosphorylated biotinylated peptide and the detection reagents. Subsequently the amount of phosphorylated substrate was evaluated by measurement of the resonance energy transfer from the Eu-chelate to the streptavidine-XL. Therefore, the fluorescence emissions at 620 nm and 665 nm after excitation at 350 nm was measured in a TR-FRET reader, e.g. a Pherastar (BMG Labtechnologies, Offenburg, Germany) or a Viewlux (Perkin-Elmer). The ratio of the emissions at 665 nm and at […] was taken as the measure for the amount of phosphorylated substrate.

T2 sequence (P50750 whole entry): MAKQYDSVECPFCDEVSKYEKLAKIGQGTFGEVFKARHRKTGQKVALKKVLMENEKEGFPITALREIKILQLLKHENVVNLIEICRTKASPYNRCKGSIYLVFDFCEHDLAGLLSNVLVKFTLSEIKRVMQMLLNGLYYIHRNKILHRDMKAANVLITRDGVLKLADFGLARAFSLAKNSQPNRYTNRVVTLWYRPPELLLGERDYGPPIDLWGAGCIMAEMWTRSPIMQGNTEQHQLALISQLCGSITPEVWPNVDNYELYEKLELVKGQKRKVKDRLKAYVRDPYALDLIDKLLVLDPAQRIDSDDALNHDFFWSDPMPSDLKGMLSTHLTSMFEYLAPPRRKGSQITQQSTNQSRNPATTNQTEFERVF
T2 sequence (O60563 whole entry partner): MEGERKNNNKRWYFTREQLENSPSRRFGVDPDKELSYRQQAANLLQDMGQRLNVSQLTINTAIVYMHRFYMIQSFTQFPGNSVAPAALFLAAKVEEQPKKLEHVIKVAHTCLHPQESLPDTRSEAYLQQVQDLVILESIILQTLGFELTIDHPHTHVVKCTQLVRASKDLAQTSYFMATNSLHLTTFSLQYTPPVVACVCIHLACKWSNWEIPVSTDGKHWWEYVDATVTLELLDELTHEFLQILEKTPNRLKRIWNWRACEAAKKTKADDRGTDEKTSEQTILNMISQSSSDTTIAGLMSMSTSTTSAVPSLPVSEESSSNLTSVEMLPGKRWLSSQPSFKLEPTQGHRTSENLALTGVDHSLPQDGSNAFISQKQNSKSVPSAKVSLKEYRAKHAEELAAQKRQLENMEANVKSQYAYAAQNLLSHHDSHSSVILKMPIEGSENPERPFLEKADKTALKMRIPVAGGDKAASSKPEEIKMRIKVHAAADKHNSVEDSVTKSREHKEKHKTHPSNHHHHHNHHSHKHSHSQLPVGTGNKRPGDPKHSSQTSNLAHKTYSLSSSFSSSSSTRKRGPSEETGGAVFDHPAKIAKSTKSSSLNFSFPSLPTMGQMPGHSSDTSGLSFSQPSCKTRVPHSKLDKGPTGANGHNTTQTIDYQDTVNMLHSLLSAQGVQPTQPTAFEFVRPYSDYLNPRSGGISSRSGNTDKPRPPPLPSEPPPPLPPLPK
T1 sequence (O75909 whole entry): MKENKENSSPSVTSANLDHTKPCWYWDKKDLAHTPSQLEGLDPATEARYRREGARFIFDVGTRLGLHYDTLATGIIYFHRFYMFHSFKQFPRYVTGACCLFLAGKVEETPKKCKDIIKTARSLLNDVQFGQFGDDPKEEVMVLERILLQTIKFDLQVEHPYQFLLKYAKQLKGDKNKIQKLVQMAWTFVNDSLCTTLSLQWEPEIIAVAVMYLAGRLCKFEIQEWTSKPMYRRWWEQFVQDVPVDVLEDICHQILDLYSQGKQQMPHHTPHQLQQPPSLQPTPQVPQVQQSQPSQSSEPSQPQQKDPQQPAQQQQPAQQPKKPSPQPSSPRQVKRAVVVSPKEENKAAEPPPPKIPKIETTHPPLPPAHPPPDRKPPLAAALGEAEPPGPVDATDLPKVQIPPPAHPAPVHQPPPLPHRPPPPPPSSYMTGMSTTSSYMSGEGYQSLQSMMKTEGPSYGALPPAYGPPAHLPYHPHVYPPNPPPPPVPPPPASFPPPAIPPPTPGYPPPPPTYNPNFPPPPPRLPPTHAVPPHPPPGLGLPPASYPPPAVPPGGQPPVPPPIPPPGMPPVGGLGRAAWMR
T1 sequence (Q9NYV4 whole entry partner): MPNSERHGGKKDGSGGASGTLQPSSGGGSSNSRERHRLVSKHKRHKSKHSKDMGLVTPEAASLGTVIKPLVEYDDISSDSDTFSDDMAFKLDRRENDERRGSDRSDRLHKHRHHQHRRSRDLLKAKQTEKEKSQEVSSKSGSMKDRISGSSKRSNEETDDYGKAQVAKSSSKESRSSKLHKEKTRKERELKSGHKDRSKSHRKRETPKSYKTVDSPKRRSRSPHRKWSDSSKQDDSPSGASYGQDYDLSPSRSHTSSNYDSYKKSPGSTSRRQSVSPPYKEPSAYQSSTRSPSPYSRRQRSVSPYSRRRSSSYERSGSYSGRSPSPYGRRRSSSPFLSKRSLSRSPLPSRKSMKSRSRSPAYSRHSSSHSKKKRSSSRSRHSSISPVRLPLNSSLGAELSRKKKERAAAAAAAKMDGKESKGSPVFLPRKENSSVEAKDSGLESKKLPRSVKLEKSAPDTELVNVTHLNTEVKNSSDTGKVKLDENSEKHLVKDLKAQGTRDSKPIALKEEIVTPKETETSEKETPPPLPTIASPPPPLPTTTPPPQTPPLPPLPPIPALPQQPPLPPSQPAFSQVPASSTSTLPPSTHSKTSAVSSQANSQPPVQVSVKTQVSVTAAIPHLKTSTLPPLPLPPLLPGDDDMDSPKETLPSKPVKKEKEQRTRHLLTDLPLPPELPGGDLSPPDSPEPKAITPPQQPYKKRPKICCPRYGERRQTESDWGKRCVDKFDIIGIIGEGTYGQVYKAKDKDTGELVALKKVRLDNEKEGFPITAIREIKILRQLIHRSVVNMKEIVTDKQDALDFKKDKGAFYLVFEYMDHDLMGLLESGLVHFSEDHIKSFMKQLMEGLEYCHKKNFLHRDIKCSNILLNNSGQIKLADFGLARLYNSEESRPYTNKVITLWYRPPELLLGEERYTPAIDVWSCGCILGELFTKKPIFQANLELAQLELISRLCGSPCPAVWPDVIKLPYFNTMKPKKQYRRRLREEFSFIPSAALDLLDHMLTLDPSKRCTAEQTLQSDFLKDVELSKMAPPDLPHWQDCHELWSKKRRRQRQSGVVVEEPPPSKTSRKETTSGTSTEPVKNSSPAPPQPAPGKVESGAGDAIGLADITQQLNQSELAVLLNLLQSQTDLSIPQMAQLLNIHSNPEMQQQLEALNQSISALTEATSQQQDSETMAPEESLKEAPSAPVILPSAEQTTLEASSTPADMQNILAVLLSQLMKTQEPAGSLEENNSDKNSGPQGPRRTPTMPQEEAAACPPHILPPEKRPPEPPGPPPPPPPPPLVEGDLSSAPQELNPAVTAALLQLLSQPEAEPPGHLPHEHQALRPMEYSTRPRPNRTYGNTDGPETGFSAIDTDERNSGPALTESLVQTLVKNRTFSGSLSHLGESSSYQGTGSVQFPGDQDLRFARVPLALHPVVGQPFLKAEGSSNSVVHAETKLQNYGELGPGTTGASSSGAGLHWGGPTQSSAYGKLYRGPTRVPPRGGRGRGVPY

| SMILES | IC50 [1] | DC50 [2] | IC50 [3] |
| --- | --- | --- | --- |
| Brc1cnn2c(NCc3nc4ccccc4[nH]3)nc(N3CCNCC3)nc12 [Example 128, N-[(1H-benzimidazol-2-yl)methyl]-8-bromo-2-(piperazin-1-yl)pyrazolo[1,5-a][1,3,5]triazin-4-amine] | 14.6 nM | 0.216 nM | > 20000 nM |
| Clc1ccccc1-c1cnc(CNc2nc(N3CCOCC3)nc3c(Br)cnn23)[nH]1 [Example 96, 8-bromo-N-{[5-(2-chlorophenyl)-1H-imidazol-2-yl]methyl}-2-(morpholin-4-yl)pyrazolo[1,5-a][1,3,5]triazin-4-amine] | 29.4 nM | 10.7 nM | 9300 nM |
| Brc1cnn2c(NCc3nc4ccccc4[nH]3)nc(N3C[C@@H]4CCCN[C@@H]4C3)nc12 [Example 146, N-[(1H-benzimidazol-2-yl)methyl]-8-bromo-2-[(4aS,7aS)-octahydro-6H-pyrrolo[3,4-b]pyridin-6-yl]pyrazolo[1,5-a][1,3,5]triazin-4-amine] | 16.1 nM | 0.56 nM | > 20000 nM |
| Brc1cnn2c(NCc3nnc(-c4ccccc4)[nH]3)nc(N3C[C@@H]4C[C@H]3CO4)nc12 [Example 120, 8-bromo-2-[(1S,4S)-2-oxa-5-azabicyclo[2.2.1]heptan-5-yl]-N-[(5-phenyl-4H-1,2,4-triazol-3-yl)methyl]pyrazolo[1,5-a][1,3,5]triazin-4-amine] | 30 nM | 2.19 nM | 10400 nM |
| Brc1cnn2c(NCc3nc4ccccc4[nH]3)nc(N3CCN4CCC[C@H]4C3)nc12 [Example 148, N-[(1H-benzimidazol-2-yl)methyl]-8-bromo-2-[(8aS)-hexahydropyrrolo[1,2-a]pyrazin-2 (1 H)-yl]pyrazolo[1,5-a][1,3,5]triazin-4-amine] | 87.6 nM | 8.06 nM | > 20000 nM |
| C[C@@H]1CN(c2nc(NCc3nc4ccccc4[nH]3)n3ncc(Br)c3n2)C[C@H](C)N1 [Example 142, N-(1H-benzimidazol-2-ylmethyl)-8-bromo-2-[(3R,5S)-3,5-dimethylpiperazin-1-yl]pyrazolo[1,5-a][1,3,5]triazin-4-amine] | 19.1 nM | 0.163 nM | > 20000 nM |
| Brc1cnn2c(NCc3nnc(-c4ccccc4)[nH]3)nc(N3CCNCC3)nc12.O=CO [Example 119, 8-bromo-N-[(5-phenyl-4H-1,2,4-triazol-3-yl)methyl]-2-piperazin-1-yl-pyrazolo[1,5-a][1,3,5]triazin-4-amine formate] | 21.3 nM | 3 nM | 6210 nM |
| Cc1cccc2[nH]c(CNc3nc(N4CCOCC4)nc4c(Br)cnn34)nc12 [Example 150, 8-bromo-N-[(4-methyl-1H-benzimidazol-2-yl)methyl]-2-(morpholin-4-yl)pyrazolo[1,5-a][1,3,5]triazin-4-amine] | 13 nM | 1.48 nM | > 20000 nM |
| C[C@@H]1CN(c2nc(NCc3nnc(-c4ccccc4)[nH]3)n3ncc(Br)c3n2)C[C@H](C)N1C [Example 125, 8-bromo-N-[(5-phenyl-4H-1,2,4-triazol-3-yl)methyl]-2-[(3R,5S)-3,4,5-trimethylpiperazin-1-yl]pyrazolo[1,5-a][1,3,5]triazin-4-amine] | 61.1 nM | 1.2 nM | 3790 nM |
| CCN1CCN(c2nc(NCc3nc4ccccc4[nH]3)n3ncc(Br)c3n2)CC1 [Example 137, N-[(1H-benzimidazol-2-yl)methyl]-8-bromo-2-(4-ethylpiperazin-1-yl)pyrazolo[1,5-a][1,3,5]triazin-4-amine] | 205 nM | 4.68 nM | > 20000 nM |

The next molecules have a lower IC50 [1] than those just listed; values first:

| IC50 [1] | DC50 [2] | IC50 [3] | SMILES |
| --- | --- | --- | --- |
| 1.03 nM | 0.279 nM | > 20000 nM | CN1CCN(c2nc(NCc3nc4cc(Cl)ccc4[nH]3)n3ncc(Br)c3n2)CC1 [Example 163, 8-bromo-N-[(5-chloro-1H-benzimidazol-2-yl)methyl]-2-(4-methylpiperazin-1-yl)pyrazolo[1,5-a][1,3,5]triazin-4-amine] |
| 1.68 nM | 0.467 nM | 13400 nM | Fc1cccc2[nH]c(CNc3nc(N4CCOCC4)nc4c(Br)cnn34)nc12 [Example 97, 8-bromo-N-[(4-fluoro-1H-benzimidazol-2-yl)methyl]-2-(morpholin-4-yl)pyrazolo[1,5-a][1,3,5]triazin-4-amine] |
| 1.34 nM | 0.115 nM | 1790 nM | C[C@@H]1CN(c2nc(NCc3nc4c(F)cccc4[nH]3)n3ncc(Br)c3n2)C[C@H](C)O1 [Example 109, 8-bromo-2-[(2R,6S)-2,6-dimethylmorpholin-4-yl]-N-[(4-fluoro-1H-benzimidazol-2-yl)methyl]pyrazolo[1,5-a][1,3,5]triazin-4-amine] |
| 8.43 nM | 0.676 nM | 613 nM | Fc1cc(F)cc(-c2nnc(CNc3nc(N4CCOCC4)nc4c(Br)cnn34)[nH]2)c1 [Example 105, 8-bromo-N-{[5-(3,5-difluorophenyl)-4H-1,2,4-triazol-3-yl]methyl}-2-(morpholin-4-yl)pyrazolo[1,5-a][1,3,5]triazin-4-amine] |
| 4.66 nM | 0.142 nM | 6100 nM | COc1ccc2[nH]c(CNc3nc(N4C[C@@H](C)O[C@@H](C)C4)nc4c(Br)cnn34)nc2c1 [Example 124, 8-bromo-2-[(2R, 6S)-2,6-dimethylmorpholin-4-yl]-N-[(5-methoxy-1H-benzimidazol-2-yl)methyl]pyrazolo[1,5-a][1,3,5]triazin-4-amine] |
| 1.09 nM | 0.112 nM | 17400 nM | Clc1ccc2[nH]c(CNc3nc(N4CCOCC4)nc4c(Br)cnn34)nc2c1 [Example 162, 8-bromo-N-[(5-chloro-1H-benzimidazol-2-yl)methyl]-2-(morpholin-4-yl)pyrazolo[1,5-a][1,3,5]triazin-4-amine] |
| 7.13 nM | 2.46 nM | > 20000 nM | Brc1cnn2c(NCc3nc4ccccc4[nH]3)nc(N3CCOCC3)nc12 [Example 4, N-[(1H-benzimidazol-2-yl)methyl]-8-bromo-2-(morpholin-4-yl)pyrazolo[1,5-a][1,3,5]triazin-4-amine] |
| 0.883 nM | 0.367 nM | > 20000 nM | Cc1ccc2[nH]c(CNc3nc(N4CCN(C)CC4)nc4c(Br)cnn34)nc2c1 [Example 158, 8-bromo-N-[(5-methyl-1H-benzimidazol-2-yl)methyl]-2-(4-methylpiperazin-1-yl)pyrazolo[1,5-a][1,3,5]triazin-4-amine] |
| 2.35 nM | 0.155 nM | > 20000 nM | CN1CCN(c2nc(NCc3nc4c(F)cccc4[nH]3)n3ncc(C4CC4)c3n2)CC1 [Example 165, 8-cyclopropyl-N-[(4-fluoro-1H-benzimidazol-2-yl)methyl]-2-(4-methylpiperazin-1-yl)pyrazolo[1,5-a][1,3,5]triazin-4-amine] |

Reference: patent US20230117034A1, “PYRAZOLOTRIAZINES” (Bayer Aktiengesellschaft, priority 2019, published 2023)
